Patent publication US11266578B2, “Composition, kit and method for coloring keratinous fibers” (Henkel AG & Co. KGaA, priority 2017, dated 2022)

Assay: Water-solubility at 1 wt. % in distilled water
Format: physicochemical
Conditions: for solubility (in Material Type): Table 17; for water-solubility: 1 wt. % in ~pH7 distilled water at RT, clear = soluble, turbid = insoluble
Method: Water-solubility of a chemical compound, and, for instance, water insolubility of condensation-curable amino-silicone pre-polymers, can be provided by the supplier. It can also be confirmed or determined as follows. Water-solubility was assessed by mixing 1 wt. % of the material in near neutral (˜pH7) distilled water at RT, followed by a brief vortex for homogeneity. A clear solution indicated a water-soluble material, whereas turbidity indicated an at least partly water-insoluble material.

Row | Compound | solubility (in Material Type) | water-solubility
1 | CCO[Si](C)(CCCN)OCC [3-Aminopropylmethyl-diethoxysilane] | silane (soluble) | –
2 | CCO[Si](C)(C)CCCN [3-aminopropyldimethylethoxysilane] | – | water soluble
3 | CCO[Si](C)(CCCNCCC[Si](C)(OCC)OCC)OCC [Bis[methyldiethoxysilyl-propyl] amine] | silane (non soluble) | –
4 | C[Si]1(C)O[Si](C)(C)O[Si](C)(C)O[Si](C)(C)O[Si](C)(C)O1 [Decamethylcyclopenta-siloxane, Decamethylcyclopentasiloxane] | (soluble) | –
5 | CCO[Si](CCCN)(OCC)OCC [Dynasylan® AMEO, 3-aminopropyltriethoxysilane] | – | soluble
6 | C[Si](C)(CCCN)O[Si](C)(C)CCCN [GP-967, Bis 3-aminopropyl tetramethyldisiloxane] | – | turbid dispersion
7 | CCO[Si](CCCNCCN)(OCC)OCC [N-(2-aminoethyl)-3-aminopropyltriethoxysilane] | silane (soluble) | water soluble
8 | CCO[Si](CCCNCCC[Si](OCC)(OCC)OCC)(OCC)OCC [SIB1824.5, bis(triethoxy-silylpropyl) amine] | – | insoluble
9 | CCO[Si](CCCN1CCC[Si]1(OCC)OCC)(OCC)OCC [SIT8187.2, 1-(3-(triethoxysilyl)propyl)-2,2-diethoxi-1-aza-2-silacyclopentane] | – | insoluble
